Experimental data: PMC4695185, “Semi-synthetic ocotillol analogues as selective ABCB1-mediated drug resistance reversal agents” (Oncotarget, 2015)
Read-outs that look alike come from different tables or passages of the source.

How the values were obtained:
[1] = test system: T1, HEK/ABCB1; assay: cells; set-up: species or system HEK293 and transfected HEK293; MTT cytotoxicity, absorbance 570 nm, 72 h; conditions: Homo sapiens, HEK293, 72 h; drug alone; read-out: IC50 HEK/ABCB1 (paclitaxel)
T1 construct: HEK293 transfected with ABCB1
Procedure: (§1) The MTT colorimetric assay was used to detect the sensitivity of the cells against anticancer drugs. Cells (5 × 10^3/well) were seeded evenly into (160 μl/well) 96-well plates and cultured overnight. For the reversal experiments, ORA, OSA, and parallel control modulators (20 μl/well) were added 1 h prior. Different concentrations of the chemotherapeutic drugs (20 μl/well) were then added into the designated wells. After 72 h of incubation, 20 μl of MTT solution (4 mg/ml) was added to each well, and the plate was further incubated for 4 h. Subsequently, the medium was discarded, and 100 μl of dimethylsulfoxide (DMSO) was added into each well to dissolve the formazan crystals. The absorbance was determined at 570 nm by the OPSYS microplate reader (DYNEX Technology, Inc., Chantilly, VA). The IC50 value was calculated from the survival curves using the modified Bliss method. Verapamil was used at a nontoxic concentration of 3 μM as a positive control for ABCB1 overexpressing cell lines. FTC at 3 μM and PAK-104P at 10 μM were used as positive control for ABCG2 and ABCC1 overexpressing cell lines, respectively.

[2] = test system: HEK293; assay: cells; set-up: species or system HEK293 and transfected HEK293; MTT cytotoxicity, absorbance 570 nm, 72 h; conditions: Homo sapiens, HEK293, 72 h, drug alone
Procedure: as §1

[3] = target: T2, ABCB1 (Homo sapiens, UniProt P08183)
T2 sequence (P08183 whole entry): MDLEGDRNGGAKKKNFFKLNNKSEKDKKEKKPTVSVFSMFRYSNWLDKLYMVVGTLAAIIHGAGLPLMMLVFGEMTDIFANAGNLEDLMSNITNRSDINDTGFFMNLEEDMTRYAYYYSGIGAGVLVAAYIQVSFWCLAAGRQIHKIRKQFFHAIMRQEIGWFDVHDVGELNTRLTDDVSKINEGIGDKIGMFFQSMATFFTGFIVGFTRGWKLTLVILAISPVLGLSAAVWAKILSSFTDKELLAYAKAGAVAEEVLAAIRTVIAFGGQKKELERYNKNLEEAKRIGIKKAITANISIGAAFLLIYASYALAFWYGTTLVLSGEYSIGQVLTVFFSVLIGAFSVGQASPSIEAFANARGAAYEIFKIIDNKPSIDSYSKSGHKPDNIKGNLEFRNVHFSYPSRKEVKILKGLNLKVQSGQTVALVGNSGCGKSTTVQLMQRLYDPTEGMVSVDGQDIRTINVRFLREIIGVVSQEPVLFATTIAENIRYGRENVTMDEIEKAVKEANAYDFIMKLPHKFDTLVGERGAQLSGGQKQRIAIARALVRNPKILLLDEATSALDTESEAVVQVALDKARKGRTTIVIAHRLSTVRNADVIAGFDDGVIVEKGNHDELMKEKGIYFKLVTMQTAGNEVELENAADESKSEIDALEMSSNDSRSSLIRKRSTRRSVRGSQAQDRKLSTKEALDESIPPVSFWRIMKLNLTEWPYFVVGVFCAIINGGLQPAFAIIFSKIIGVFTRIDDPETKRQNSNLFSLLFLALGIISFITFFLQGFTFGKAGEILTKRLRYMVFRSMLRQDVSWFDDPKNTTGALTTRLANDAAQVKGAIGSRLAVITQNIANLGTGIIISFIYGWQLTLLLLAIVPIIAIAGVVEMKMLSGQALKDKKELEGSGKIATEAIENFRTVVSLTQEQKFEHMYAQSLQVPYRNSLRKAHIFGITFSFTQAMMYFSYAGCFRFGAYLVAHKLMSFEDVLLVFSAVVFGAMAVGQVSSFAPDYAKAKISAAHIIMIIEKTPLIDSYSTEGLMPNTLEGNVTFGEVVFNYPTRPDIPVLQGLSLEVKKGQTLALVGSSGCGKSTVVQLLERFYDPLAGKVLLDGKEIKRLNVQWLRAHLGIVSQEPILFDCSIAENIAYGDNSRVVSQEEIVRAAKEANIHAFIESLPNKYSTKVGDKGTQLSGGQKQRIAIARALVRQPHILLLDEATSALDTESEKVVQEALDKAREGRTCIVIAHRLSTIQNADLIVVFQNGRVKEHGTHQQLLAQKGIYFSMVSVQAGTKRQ

[4] = target: T2, ABCB1; assay: biochemical; set-up: full length ABCB1 (HEK/ABCB1); crude membranes of High-five cells expressing ABCB1
[5] = target: T2, ABCB1; assay: cell-based; set-up: crude membranes of High-five cells expressing ABCB1; conditions: read-out: vanadate-sensitive ATPase stimulation in crude membranes (weak: maximal 1.78-fol)
[6] = test system: T3, HEK/ABCG2; assay: cells; set-up: species or system HEK293 and transfected HEK293; MTT cytotoxicity, absorbance 570 nm, 72 h; conditions: Homo sapiens, HEK293, 72 h; drug alone; read-out: IC50 HEK/ABCG2 (mitoxantrone)
T3 construct: HEK293 transfected with ABCG2 (wild type)
Procedure: as §1

How did the IC50 [1] turn out when CC(=O)O[C@H]1C(=O)[C@@]2(C)[C@H]([C@H](OC(=O)c3ccccc3)[C@]3(O)C[C@H](OC(=O)[C@H](O)[C@@H](NC(=O)c4ccccc4)c4ccccc4)C(C)=C1C3(C)C)[C@]1(OC(C)=O)CO[C@@H]1C[C@@H]2O [paclitaxel] was run?
Its IC50 is 8200 nM.

What about the IC50 ([2]; read-out: IC50 HEK293 (paclitaxel)) of the same molecule?
Its IC50 is 180 nM.

What about the “radiolabelled efflux and accumulation in ABCB1-overexpressing versus parental ce” value [3] of the same molecule?
The value was “decreased much faster over time than those in the parental cells, suggesting an active process of drug efflux mediated by ABCB1”.

Which EC50 [4] does the source give for CC(C)(O)[C@H]1CC[C@@](C)([C@H]2CC[C@]3(C)[C@@H]2[C@H](O)C[C@@H]2[C@@]4(C)CC[C@H](N)C(C)(C)[C@@H]4CC[C@]23C)O1 [ORA, (20S, 24R/S)-epoxy-12β, 25-dihydroxy-dommarane-3β-amine] here?
The EC50 was 2080 nM.

CC(C)(O)[C@@H]1CC[C@@](C)([C@H]2CC[C@]3(C)[C@@H]2[C@H](O)C[C@@H]2[C@@]4(C)CC[C@H](N)C(C)(C)[C@@H]4CC[C@]23C)O1 [OSA, (20S, 24R/S)-epoxy-12β, 25-dihydroxy-dommarane-3β-amine] was tested. Which maximal fold induction [5] did it give?
The maximal fold induction was 1.78.

Which results are given for O=C1c2c(O)ccc(O)c2C(=O)c2c(NCCNCCO)ccc(NCCNCCO)c21 [Mitoxantrone]?
IC50 [6]: 920 nM; IC50 ([2]; read-out: IC50 HEK293 (mitoxantrone)): 40 nM
